Where “and” joins values, the source holds several entries; their conditions need not be identical. Equal entries are not always repeated.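 Interpolation was linear, between the two tested concentrations surrounding the appropriate level; five concentrations were tested over 48 hours in 96-well plates. GI50 = concentration required for 50% inhibition of growth. The concentration for full growth arrest is given as TGI.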
Experiments:
Assay in all cases: NCI tumour cell line growth inhibition, 48 h
[1] = test system: SNB-78 CNS
[2] = test system: SN12K1 renal
[3] = test system: DLD-1 colon
[4] = test system: DMS 273 small cell lung
[5] = test system: HOP-18 NSCLC
[6] = test system: P388/ADR leukemia
[7] = test system: M19-MEL melanoma
[8] = test system: P388 leukemia
[9] = test system: LXFL 529 NSCLC
[10] = test system: XF 498 CNS

SMILES: COC(=O)[C@@H](O)[C@](O)(CCC(C)C)C(=O)O[C@@H]1C(OC)=C[C@]23CCCN2CCc2cc4c(cc2[C@H]13)OCO4
- TGI [1]: 10.9 µM
- TGI [2]: 5.89 µM
- TGI [3]: > 19.7 µM
- TGI [4]: 3.47 µM
- TGI [5]: 7.81 µM
- TGI [6]: 11 µM
- TGI [7]: 4.16 µM
- TGI [8]: 1.16 µM

SMILES: Cc1ccc(NC(=O)CC2Sc3ccccc3NC2=O)cc1C (configuration not stated)
- TGI [9]: > 100 µM
- TGI [1]: > 100 µM
- TGI [3]: > 100 µM
- TGI [4]: > 100 µM
- TGI [10]: > 100 µM
- TGI [5]: > 100 µM
- TGI [7]: > 100 µM

SMILES: Nc1nc(SCCC/C=C/I)nc2c1ncn2C1OC(COP(=O)(O)O)C(O)C1O (configuration not stated)
- TGI [9]: > 100 µM
- TGI [1]: > 100 µM
- TGI [3]: > 100 µM
- TGI [4]: > 100 µM
- TGI [10]: > 100 µM
- TGI [7]: > 100 µM

SMILES: O=C1C=C[C@@H](COC2OC(CO)C(O)C(O)C2O)O1 (some centres not stated)
- TGI [2]: 28.9 µM and 29.2 µM
- TGI [3]: 17.9 µM and 19.1 µM
- GI50 [4]: 2.44 µM
- TGI [4]: 13.9 µM and 39.6 µM
- GI50 [10]: 14.3 µM
- TGI [10]: 31.6 µM and 34.5 µM
- TGI [5]: > 100 µM
- TGI [6]: 1.82 µM
- GI50 [7]: 3.8 µM
- TGI [7]: 16.3 µM and 26.8 µM

SMILES: COc1ccc2[nH]cc(/C=C(/C)c3ccncc3)c2c1
- GI50 [1]: 9.43 µM
- TGI [1]: > 100 µM
- GI50 [2]: 5.6 µM
- TGI [2]: 27.6 µM and > 100 µM
- GI50 [3]: 4 µM
- TGI [3]: > 100 µM
- GI50 [4]: 2.37 µM
- TGI [4]: 19.6 µM and 10.5 µM
- GI50 [10]: 4.3 µM
- TGI [10]: 27.8 µM and 44.5 µM
- TGI [5]: > 100 µM
- TGI [6]: 22.6 µM
- GI50 [7]: 6.77 µM
- TGI [7]: 32 µM and 21.5 µM
- TGI [8]: 9.68 µM

SMILES: N#C/C(=C1/Sc2c(nc[nH]c2=O)N1c1ccccc1)c1nc2ccccc2[nH]1
- TGI [9]: > 100 µM
- TGI [1]: > 100 µM
- TGI [3]: > 100 µM
- TGI [4]: > 100 µM
- TGI [10]: > 100 µM
- TGI [7]: > 100 µM

From PubChem BioAssay (NCI)
